Reference: article PMC8348070, “Structure-Based Designing, Solvent Less Synthesis of 1,2,3,4-Tetrahydropyrimidine-5-carboxylate Derivatives: A Combined In Vitro and In Silico Screening Approach” (Molecules, 2021)
≈ marks a conversion by molar mass, not a printed value.

What was measured:
[1] = MTT cytotoxicity (cell viability) assay; assay type: cell-based, human; settings: human, HepG2 cell line, 48 h, Figure 6
Method: (§1) Cells were treated with extracts/compound dissolved in DMSO with a final DMSO concentration of 0.05%. DMSO treated cells were used as control in all the experiments. Cell viability was determined by MTT assay as described by us previously. Briefly, HepG2 cells were treated with different concentrations of compounds for 48 h. […] Subsequently, 150 μL DMSO was added to dissolve formazan crystals and absorbance was measured at 490 nm in a microplate reader (Thermo Scientific, Waltham, MA, USA). The percentage of cell viability was calculated.

[2] = Antioxidant free radical scavenging activity using DPPH; assay type: biochemical; settings: Figure 7 and text
Method: The potential of synthesized compounds to scavenge the free radicals were assessed by using diphenylpicrylhydrazyl (DPPH) as free radical [48].
These stock solutions were then subjected to prepare their dilutions up to 250 µg, 200 µg, 150 µg, 100 µg, 50 µg and 25 µg respectively. DPPH solution of 4% was prepared by mixing 0.004 g of DPPH in 100 ml methanol (commercial grade). Ascorbic acid was used as control and its solution was prepared by mixing 0.0017612 g into 100 ml of water having 100 µg concentration.
In test tubes 1 mL of sample from each diluted solution and 2 mL of DPPH solution was added. In the same way, 1 mL of the ascorbic acid was added along with 2 ml of DPPH as control and allowed to stand overnight.

[3] = tested on: HepG2 cells; assay: MTT cytotoxicity (cell viability) assay; assay type: cell-based, human; settings: Homo sapiens, HepG2, read-out: IC50 as anti-cancer agents
Method: as §1

With `CCOC(=O)C1=C(C)NC(=O)NC1c1ccccc1F` (stereo not drawn) [Compound 5a, 4-(2-fluorophenyl)-6-methyl-2oxo-1,2,3,4-tetrahydropyrimidine-5-carboxylate] the IC50 at 48 h [1] was 16 µg/mL (≈ 57.5 µM) and the melting point was 230 to 233 °C.

In the case of `CCOC(=O)C1=C(C)NC(=O)NC1c1cccc(F)c1` (stereo not drawn) [Compound 5b, ethyl 4-(3-fluorophenyl)-6-methyl-2oxo-1,2,3,4-tetrahydropyrimidine-5-carboxylate], the IC50 at 48 h ([1]; HepG2 cells) was 11.3 µg/mL (≈ 40.5 µM) and the melting point was 210 to 213 °C.

For `CCOC(=O)C1=C(C)NC(=O)NC1c1ccc(F)cc1` (stereo not drawn) [Compound 5c, ethyl 4-(4-fluorophenyl)-6-methyl-2oxo-1,2,3,4-tetrahydropyrimidine-5-carboxylate], the IC50 at 48 h [1] was 7.29 µg/mL (≈ 26.2 µM) and the “IC50 as anti-oxidant agents” value [2] was 6.261 µM.

Molecule `CCOC(=O)C1=C(C)NC(=S)NC1c1ccccc1F` (stereo not drawn) [Compound 5d, ethyl 4-(2-fluorophenyl)-6-methyl-2-thioxo-1,2,3,4-tetrahydropyrimidine-5-carboxylate] has an IC50 at 48 h [1] of 25.5 µg/mL (≈ 86.7 µM).

With `CCOC(=O)C1=C(C)NC(=S)NC1c1cccc(F)c1` (stereo not drawn) [Compound 5e, ethyl 4-(3-fluorophenyl)-6-methyl-2-thioxo-1,2,3,4-tetrahydropyrimidine-5-carboxylate] the IC50 [3] was 5.35 µg/mL (≈ 18.2 µM) and the IC50 at 48 h [1] was 5.35 µg/mL (≈ 18.2 µM).

In the case of `CCOC(=O)C1=C(C)NC(=S)NC1c1ccc(F)cc1` (stereo not drawn) [Compound 5f, ethyl 4-(4-fluorophenyl)-6-methyl-2thioxo-1,2,3,4-tetrahydropyrimidine-5-carboxylate], the IC50 at 48 h ([1]; HepG2 cells) was 18.7 µg/mL (≈ 63.5 µM) and the melting point was 233 to 235 °C.

In the case of `CCOC(=O)C1=C(C)NC(=S)NC1c1cccc(Cl)c1` (stereo not drawn) [Compound 5h, ethyl 4-(3-chlorophenyl)-6-methyl-2thioxo-1,2,3,4-tetrahydropyrimidine-5-carboxylate], the IC50 at 48 h [1] was 13 µg/mL (≈ 41.7 µM).
